Where a name gives a salt, the structure may show the parent alone.
Key:
rat EP4 receptor = rat EP4 receptor (Rattus norvegicus, UniProt P43114); test: Evaluation test on EP4 receptor affinity in rat ([3H]PGE2 receptor binding test, membrane fraction); set-up: expressed in transfected cells; host or cells: HEK293 cells, transient transfection (Lipofectamine 2000); membrane fraction used; conditions: [3H]PGE2 0.3 nM, membrane fraction of rat EP4 expressing HEK293 cells
Experimental: A rat EP4 receptor cDNA was subcloned into an expression vector (pcDNA3.1-V5-His-topo, manufactured by Invitrogen Corporation) to prepare a rat EP4 expression vector. HEK293 cells were cultured in a collagen type I-treated 15 cm dish (manufactured by Asahi Techno Glass Co. Ltd.) to a confluence of 70%. An Opti-MEM culture medium at 1.2 mL/dish and a transfection reagent (Lipofectamine 2000, manufactured by Invitrogen Corporation) at 60 μL/dish were mixed, followed by being left to stand at room temperature for 5 minutes. Then, the rat EP4 receptor expression vector at 15 μg/dish was added thereto, followed by being left to stand at room temperature for 30 minutes. The liquid mixture of the transfection reagent was added into the dish, followed by culturing for 20 to 24 hours. The cell culture was carried out in a CO2 incubator (37° C., 5% CO2).
The culture medium was removed by suction, 10 mL of cooled PBS was added thereto per 15 cm dish, and the cells were scraped using a cell scraper. After washed with cooled PBS (1,200 rpm, 4° C., 5 minutes), suspended in 6 mL/dish of cooled 20 mM Tris-HCl (pH 7.4; manufactured by Nacalai Tesque Inc., 5 mM EDTA included) and homogenized using a Polytron, the homogenate was centrifuged (26,000 rpm, 20 minutes, 4° C.). The obtained precipitate was resuspended in cooled 20 mM Tris-HCl and homogenized again using a Polytron, and the homogenate was centrifuged (26,000 rpm, 20 minutes, 4° C.). The obtained precipitate was resuspended in 50 mM HEPES (pH 7.5; manufactured by Dojindo Laboratories) at 1 mL per dish, homogenized using a Polytron, and freeze-stored at −80° C. as a membrane fraction. At this time, a part thereof was used for the measurement of the protein concentration. Measurement of the protein concentration was carried out using a Protein assay stain (manufactured by Bio-Rad Laboratories) in accordance with a standard Protocol as appended in duplicate.
[^3H]PGE2 50 μL (final concentration 0.3 nM; manufactured by Perkin Elmer Co., Ltd.), 100 μL (20 μg/well) of the membrane fraction prepared from the rat EP4 expression cell, and 50 μL of a test compound were mixed in a 96-well microplate (manufactured by Sumitomo Bakelite Co., Ltd.), incubated at room temperature for 1 hour, then filtered by suction on a microplate (UniFilter-96 GF/B, manufactured by Perkin Elmer Co., Ltd.) using a cell harvester (FilterMate Harvester, manufactured by Perkin Elmer Co., Ltd.), and washed three times with 300 μL/well of a cooled assay buffer (50 mM HEPES, 10 mM MgCl2). Dilution of [^3H]PGE2 and the membrane fraction was carried out using the assay buffer, and dilution of the test compound and the unlabeled PGE2 was carried out using dimethyl sulfoxide and the assay buffer. The UniFilter-96 GF/B was treated by preliminarily washing twice with 200 μL/well of the cooled assay buffer. The UniFilter-96 GF/B after filtration was dried in a dryer overnight, 50 μL/well of a liquid scintillation cocktail (MicroScint20, manufactured by Perkin Elmer Co., Ltd.) was added thereto, and the radioactivity was then measured using a liquid scintillation counter for a microplate (TopCount, manufactured by Perkin Elmer Co., Ltd.). For measurement of the non-specific binding, an unlabeled PGE2 (final concentration 1 μM; manufactured by Cayman Chemical Company) was added. All of the measurements were carried out in duplicate, and the specific binding amount was determined by subtracting the non-specific binding amount from the total binding amount.
According to the test method as described above, the rat EP4 receptor affinity (Ki) of the compound of the formula (I) was measured. […] In this connection, Ex means Example Compound number.

rat EP3β receptor = target: T1, rat EP3β receptor (Rattus norvegicus, UniProt P34980); test: Rat EP3 receptor agonistic/antagonistic action (intracellular Ca2+, FLIPR, HEK293 stable expression cells); type: cell-based; conditions: inhibition of intracellular Ca2+ increasing action by PGE2; read-out: RatEP3 Antagonistic Action IC50
T1 construct: expressed in transfected cells
T1 sequence (P34980 1-361 isoform P34980-2): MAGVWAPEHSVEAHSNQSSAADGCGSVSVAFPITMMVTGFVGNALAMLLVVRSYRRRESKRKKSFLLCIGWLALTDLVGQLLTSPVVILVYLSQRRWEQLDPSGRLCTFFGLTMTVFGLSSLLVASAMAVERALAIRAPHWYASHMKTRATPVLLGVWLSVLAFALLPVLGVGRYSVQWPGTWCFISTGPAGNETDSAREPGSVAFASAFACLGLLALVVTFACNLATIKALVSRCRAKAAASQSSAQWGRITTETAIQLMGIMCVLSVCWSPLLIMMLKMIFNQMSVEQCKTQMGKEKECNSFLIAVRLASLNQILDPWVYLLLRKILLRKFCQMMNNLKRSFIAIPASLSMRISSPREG
Experimental: Using rat EP1 or rat EP3β receptor stable expression cells, the intracellular Ca^2+ concentration was measured using a fluorescent imaging plate reader (FLIPR manufactured by Molecular Devices Corporation). The agonistic activity was evaluated by the intracellular Ca^2+ increasing action of the test compound, and the antagonistic activity was evaluated by the inhibiting action of the test compound on the intracellular Ca^2+ increasing action by PGE2.
The cDNA of the rat EP 1 or EP3β receptor was subcloned into an expression vector (pcDNA3.1-V5-His-topo, manufactured by Invitrogen Corporation). This expression vector was introduced into HEK293 cells (American Type Culture Collection) to prepare a rat EP1 or EP3β receptor stable expression cell line. These cells were seeded onto a 96-well poly-D-lysin treated black wall clear bottom plate (manufactured by Becton, Dickinson and Company) at 2 to 3×10^4 cell/well, and used for the experiment the next day. The measurement of the intracellular Ca^2+ concentration was carried out by an FLIPR calcium 3 assay kit (manufactured by Molecular Devices Corporation). The culture medium of each well was removed by suction and replaced with a loading buffer (Hank's balanced salt solution containing 20 mM HEPES-NaOH (pH 7.4), 2.5 mM Probenecid, 0.1% bovine serum albumin, and a color), followed by incubating at room temperature for 3 hours and loading a color. For the evaluation of the agonistic action, the change in the intracellular Ca^2+ concentration was determined from the difference in the maximum value of the intracellular Ca^2+ concentration after the addition of the test compound and the value before the addition of the test compound. For the evaluation of the antagonistic action, after incubating the test compound for 5 minutes, PGE2 was added thereto to determine the change in the intracellular Ca^2+ concentration by PGE2.
Further, NE means that the action has no significance.

Chain of rat EP4 receptor (P43114 whole entry): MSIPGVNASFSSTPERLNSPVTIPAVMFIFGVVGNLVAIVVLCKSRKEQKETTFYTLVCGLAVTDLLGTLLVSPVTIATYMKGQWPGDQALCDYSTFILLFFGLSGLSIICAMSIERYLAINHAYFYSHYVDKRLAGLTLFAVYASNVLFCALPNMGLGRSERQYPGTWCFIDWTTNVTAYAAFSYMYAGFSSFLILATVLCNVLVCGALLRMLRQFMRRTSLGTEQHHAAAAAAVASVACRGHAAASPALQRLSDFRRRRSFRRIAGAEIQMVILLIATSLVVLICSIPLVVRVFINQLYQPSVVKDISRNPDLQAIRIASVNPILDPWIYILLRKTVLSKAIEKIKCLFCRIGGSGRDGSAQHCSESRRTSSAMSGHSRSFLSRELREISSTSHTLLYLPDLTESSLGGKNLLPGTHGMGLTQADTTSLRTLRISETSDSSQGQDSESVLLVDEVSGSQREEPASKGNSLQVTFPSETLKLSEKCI

Row | Structure (SMILES) | Ki (rat EP4 receptor) [nM] | IC50 (rat EP3β receptor) [nM]
1 | O=C(O)c1ccc(CCn2c(CN3CCc4ccc(F)cc43)c(Cl)cc(Cl)c2=O)cc1 [Example 9, 4-(2-{3,5-dichloro-6-[(6-fluoro-2,3-dihydro-1H-indol-1-yl)methyl]-2-oxopyridin-1(21-1)-yl}ethyl)benzoic acid] | 11 | > 10000
2 | CCC[C@H]1CCCN1Cc1c(Cl)cc(Cl)c(=O)n1CCc1ccc(C(=O)O)cc1 [Example 17, 4-{2-[3,5-dichloro-2-oxo-6-{[(2S)-2-propylpyrrolidin-1-yl]methyl}pyridin-1(2H)-yl]ethyl}benzoic acid trifluoroacetate] | 11 | > 10000
3 | O=C(O)c1ccc(CCn2c(CNc3cccc(OC(F)(F)F)c3)c(Cl)cc(Cl)c2=O)cc1 [Example 107] | 10 | > 10000
4 | CN(Cc1c(Cl)cc(Cl)c(=O)n1CCc1ccc(C(=O)O)cc1)c1cccc(Cl)c1 [Example 160] | 11 | ≥ 10000
